Assay results from patent US8772286B2, “MK2 inhibitors” (Merck Sharp & Dohme B.V., priority 2009, dated 2014).
≈ marks a conversion by molar mass, not a printed value. Where two headings read alike, the source gives them in different places.

How the values were obtained:
MK2 enzyme = target: T1, MK2 enzyme (Homo sapiens, UniProt P49137); assay: MK2 enzyme activity, IMAP fluorescence polarization assay; format: biochemical
T1 construct: MK2 enzyme (active enzyme (peptide 46-end (Millipore))); purchased Millipore
T1 sequence (P49137 46-400 limits assumed): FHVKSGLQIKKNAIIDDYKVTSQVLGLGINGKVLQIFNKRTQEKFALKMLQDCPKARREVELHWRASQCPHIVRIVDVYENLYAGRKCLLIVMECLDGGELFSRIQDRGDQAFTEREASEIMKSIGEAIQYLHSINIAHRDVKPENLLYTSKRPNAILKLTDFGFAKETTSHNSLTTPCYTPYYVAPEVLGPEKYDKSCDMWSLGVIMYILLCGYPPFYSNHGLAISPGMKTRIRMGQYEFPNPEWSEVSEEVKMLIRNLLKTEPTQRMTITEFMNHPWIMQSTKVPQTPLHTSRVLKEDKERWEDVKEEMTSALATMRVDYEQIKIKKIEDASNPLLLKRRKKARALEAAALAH
Summary of the method: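 Enzyme kept in KR buffer (10 mM Tris-HCl, 10 mM MgCl2, 0.01% Tween-20, 2 mM DTT, pH 7.2) and acting on a fluorescein-labeled peptide substrate; final compound range 10 μM to 0.316 nM. After 60 min at room temperature, FP at 535 nm was read. Signal as percent of the with/without-ATP control difference, and EC50 by curve fit.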

[1] = Solubility determination of MK2 inhibitors (kinetic aqueous solubility, UPLC); format: physicochemical; details: aqueous buffer (system solution from pION inc.), 22 °C, pH 7.4, aqueous buffer, kinetic from dmso stock
Summary of the method: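 Kinetic shake-flask solubility (mg/L) at pH 7.4, room temperature (21-23° C.), 1% final DMSO from 10 mM DMSO stock, duplicates. Shaken 24 h, filtered (0.45 um), 1-propanol added to filtrate; dissolved compound quantified by UPLC-UV against external DMSO calibration line of the same compound.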

[2] = Table 2, compound of Formula (I) with amine-containing spiro ring, pH 7.4, read-out: Solubility pH 7.4 (mg/L), Formula (I)
[3] = Table 2, compound of Formula (I) with amine-containing spiro ring, MK2 IMAP assay, read-out: pEC50, Formula (I) (converted)
[4] = MK2 IMAP assay, 1 μM ATP, 30 min pre-incubation, 2 h room temperature, read-out: pEC50 value (converted)
[5] = pH 7.4, room temperature, about 1% DMSO, 24 h shaking, read-out: solubility

Row | SMILES | EC50 (MK2 enzyme; [4]) [nM] | solubility at 24 h [1, 5] [mg/L] | further results
1 | O=C1NCC2(CCNCC2)c2[nH]c(-c3ccnc(-c4cnc5ccccc5c4)n3)cc21 [17_2 Formula (I)] |  |  | pEC50, Formula (I) (MK2 enzyme; Table 2, compound of Formula (I) with amine-containing spiro ring, MK2 IMAP assay): 8.2; solubility at 24 h [1, 2]: 23 mg/L
2 | O=C1NCC2(CCOCC2)c2[nH]c(-c3ccnc(-c4cnc5ccccc5c4)n3)cc21 [17_2 Formula (XVI)] |  |  | EC50 (MK2 enzyme; Table 2, comparison compound of Formula (XVI), spiro ring without amine, MK2 IMAP assay, read-out: pEC50, Formula (XVI) (converted)): 316 nM; solubility at 24 h ([1]; Table 2, comparison compound of Formula (XVI), spiro ring without amine, pH 7.4, read-out: Solubility pH 7.4 (mg/L), Formula (XVI)): 3 mg/L
3 | O=C1NCC2(CCNC2)c2[nH]c(-c3ccnc(-c4cnc5ccccc5c4)n3)cc21 (centres unmarked) [17_3 Formula (I)] |  |  | EC50 (MK2 enzyme; [3]): 2.51 nM; solubility at 24 h [1, 2]: 37 mg/L
4 | O=C1NCC2(CCNC2)c2[nH]c(-c3ccnc(-c4cccc(F)c4)n3)cc21 (centres unmarked) [17_4 Formula (I)] |  |  | EC50 (MK2 enzyme; [3]): 12.6 nM; solubility at 24 h [1, 2]: 48 mg/L
5 | CN1CCC2(CC1)CNC(=O)c1cc(-c3ccnc(-c4cc5ccccc5o4)n3)[nH]c12 [Example 2—1, 2′-(2-(benzofuran-2-yl)pyrimidin-4-yl)-1-methyl-5′,6′-dihydrospiro[piperidine-4,7′-pyrrolo[3,2-c]pyridin]-4′(1′H)-one] |  | 20 to 50 (≈ 48.4 to 121 µM) | EC50 (MK2 enzyme): 3.16 to 31.6 nM
6 | NCCN1CCC2(CC1)CNC(=O)c1cc(-c3ccnc(-c4cc5ccccc5o4)n3)[nH]c12 [Example 2—3, 1-(2-aminoethyl)-2′-(2-(benzofuran-2-yl)pyrimidin-4-yl)-5′,6′-dihydrospiro[piperidine-4,7′-pyrrolo[3,2-c]pyridin]-4′(1′H)-one] | 31.6 to 316 | ≥ 50 | 
7 | CC(=O)NCCN1CCC2(CC1)CNC(=O)c1cc(-c3ccnc(-c4cc5ccccc5o4)n3)[nH]c12 [Example 3—1, N-(2-(2′-(2-(benzofuran-2-yl)pyrimidin-4-yl)-4′-oxo-1′,4′,5′,6′-tetrahydrospiro[piperidine-4,7′-pyrrolo[3,2-c]pyridine]-1-yl)ethyl)acetamide] | 3.16 to 31.6 | ≥ 50 | 
8 | O=C1NCC2(CCNCC2)c2[nH]c(-c3nc(-c4cc5ccccc5o4)ncc3F)cc21 [Example 4—1, 2′-(2-(benzofuran-2-yl)-5-fluoropyrimidin-4-yl)-5′,6′-dihydrospiro[piperidine-4,7′-pyrrolo[3,2-c]pyridin]-4′(1′H)-one] | 3.16 to 31.6 | 20 to 50 (≈ 47.9 to 120 µM) | 
9 | O=C1NCC2(CCCNC2)c2[nH]c(-c3ccnc(-c4cc5ccccc5o4)n3)cc21 (centres unmarked) [Example 5—1, 2′-(2-(benzofuran-2-yl)pyrimidin-4-yl)-5′,6′-dihydrospiro[piperidine-3,7′-pyrrolo[3,2-c]pyridin]-4′(1′H)-one] | 3.16 to 31.6 | ≥ 50 | 
10 | O=C(Nc1cc(-c2cc3c([nH]2)C2(CCNCC2)CNC3=O)ccn1)c1ccc(C(F)(F)F)cc1 [Example 12—1, N-(4-(4′-oxo-1′,4′,5′,6′-tetrahydrospiro[piperidine-4,7′-pyrrolo[3,2-c]pyridine]-2′-yl)pyridin-2-yl)-4-(trifluoromethyl)benzamide] | ≤ 3.16 | 20 to 50 (≈ 42.6 to 107 µM) | 
11 | O=C(Nc1nccc(-c2cc3c([nH]2)C2(CCCNC2)CNC3=O)n1)c1ccc(C(F)(F)F)cc1 (centres unmarked) [Example 13—1, N-(4-(4′-oxo-1′,4′,5′,6′-tetrahydrospiro[piperidine-3,7′-pyrrolo[3,2-c]pyridine]-2′-yl)pyrimidin-2-yl)-4-(trifluoromethyl)benzamide] | 31.6 to 316 | 20 to 50 (≈ 42.5 to 106 µM) | 

Continued, in another order:

Row | EC50 (MK2 enzyme; [4]) [nM] | solubility at 24 h [1, 5] [mg/L] | SMILES | further results
12 | 3.16 to 31.6 | 20 to 50 (≈ 50.1 to 125 µM) | O=C1NCC2(CCNCC2)c2[nH]c(-c3ccnc(-c4cc5ccccc5o4)n3)cc21 [Example 1—1, 2′(2-(benzofuran-2-yl)pyrimidin-4-yl)-5′,6′-dihydrospiro[piperidine-4,7′-pyrrolo[3,2-c]pyridin]-4′(1′H)-one] | 
13 | 3.16 to 31.6 | ≥ 50 | O=C1NCC2(CCNCC2)c2[nH]c(-c3ccnc(-c4ccc(Cl)c(Cl)c4)n3)cc21 [Example 1—13, 2′-(2-(3,4-dichlorophenyl)pyrimidin-4-yl)-5′,6′-dihydrospiro[piperidine-4,7′-pyrrolo[3,2-c]pyridin]-4′(1′H)-one] | 
14 | ≤ 3.16 | 20 to 50 (≈ 50.4 to 126 µM) | O=C1NCC2(CCNC2)c2[nH]c(-c3ccnc(-c4cnc5ccccc5c4)n3)cc21 (centres unmarked) [Example 6—1, 2′-(2-(quinolin-3-yl)pyrimidin-4-yl)-5′,6′-dihydrospiro[pyrrolidine-3,7′-pyrrolo[3,2-c]pyridin]-4′(1′H)-one] | 
15 | 3.16 to 31.6 | ≥ 50 | O=C1NCC2(CCNCC2)c2[nH]c(-c3ccnc(-c4cc5ccccc5o4)c3)cc21 [Example 8—1, 2′-(2-(benzofuran-2-yl)pyridin-4-yl)-5′,6′-dihydrospiro[piperidine-4,7′-pyrrolo[3,2-c]pyridin]-4′(1′H)-one] | 
16 | 3.16 to 31.6 | ≥ 50 | O=C1NCC2(CCNCC2)c2[nH]c(-c3ccnc(-c4nc5ccccc5s4)c3)cc21 [Example 9—1, 2′-(2-(benzo[d]thiazol-2-yl)pyridin-4-yl)-5′,6′-dihydrospiro[piperidine-4,7′-pyrrolo[3,2-c]pyridin]-4′(1′H)-one] | 
